Measured values reported in US11278497B2, “Co-spray drying of meropenem and colistin and the uses thereof” (Purdue Research Foundation, priority 2018, dated 2022).
Converted amounts (≈) assume the structure as drawn. Where two headings read alike, the source gives them in different places.

Columns and labels:
[1] = cited from earlier work
[2] = tested on: Pseudomonas aeruginosa 19147; test: Minimum inhibitory concentration, clinical isolate Pseudomonas aeruginosa 19147; type: cell-based
P. aeruginosa 19147 = test: Time-kill assay against P. aeruginosa 19147; type: cell-based, Pseudomonas aeruginosa; details: for time-kill antibacterial activity, monotherapy (summary): considerable regrowth; for complete bacterial killing in time-kill: monotherapy, e.g. 192 mg/L, at 24 h
Experimental: (§1) Time-kill studies were conducted for meropenem, colistin and three combinations (Colistin:Meropenem_1:3, Colistin:Meropenem_1:1 and Colistin:Meropenem_3:1) against A. baumannii N16870 and P. aeruginosa 19147. All experiments were performed with an initial inoculum of ˜10^6 CFU/mL in 20 mL of Cation-Adjusted Mueller-Hinton Broth (CAMHB) in 50 mL pyrogen-free and sterile polypropylene tubes. Serial samples (50 μL) were collected at 0, 1, 2, 4, and 24 h for viable counting on nutrient agar plates and the limit of detection was 20 CFU/mL. A ProtoCOL automated colony counter (Synbiosis, Cambridge, United Kingdom) was used to quantify bacteria after 24 h of incubation at 37° C. Bacterial growth was measured after 0, 1, 2, 4 and 24 h of incubation at 37° C. A growth control without antibiotic was also tested.

A. baumannii N16870 [3] = test: Time-kill assay against A. baumannii N16870; type: cell-based, Acinetobacter baumannii; details: for time-kill antibacterial activity, monotherapy (summary): considerable regrowth except colistin at 48 mg/L
Experimental: as §1

A. baumannii N16870 [4] = test: Minimum inhibitory concentration, clinical isolate A. baumannii N16870; type: cell-based, Acinetobacter baumannii
[5] = monotherapy 16 mg/L, up to 24 h

| Compound | water solubility [1] | MIC ([2]; read-out: MIC) [µg/mL] | time-kill antibacterial activity, monotherapy (summary) (P. aeruginosa 19147) | complete bacterial killing in time-kill (P. aeruginosa 19147) | time-kill antibacterial effect (A. baumannii N16870 [3]; [5]) | regrowth in time-kill (A. baumannii N16870 [3]; monotherapy 48 mg/L) | time-kill antibacterial effect (A. baumannii N16870 [3]; monotherapy 48 mg/L) | time-kill antibacterial activity, monotherapy (summary) (A. baumannii N16870 [3]) | MIC (A. baumannii N16870 [4]; Acinetobacter baumannii) [µg/mL] | MIC [2] [µg/mL] | regrowth in time-kill (A. baumannii N16870 [3]; monotherapy 16 mg/L) | minimum inhibitory concentration [MIC] (A. baumannii N16870 [4]) [µg/mL] |
| --- | --- | --- | --- | --- | --- | --- | --- | --- | --- | --- | --- | --- |
| C[C@@H](O)[C@H]1C(=O)N2C(C(=O)O)=C(S[C@@H]3CN[C@H](C(=O)N(C)C)C3)[C@H](C)[C@H]12 [meropenem] | approximately 16.4 mg/mL | 16 (≈ 41.7 µM) | weak antibacterial activity | complete killing could not be achieved | no antibacterial effect | regrowth was observed in 4 h | marginal antibacterial activity | weak antibacterial activity | 16 (≈ 41.7 µM) | – | – | – |
| colistin | – | – | weak antibacterial activity | complete killing could not be achieved | bacterial killing | – | bacterial killing | weak antibacterial activity | – | 0.5 | regrowth was evident in 4 h | 0.5 |
